From patent US20230121313A1 (priority 2019, published 2023)
Values joined by “and” are separate entries in the source; they are usually repeats but may differ in a detail not shown here. Equal entries are not always repeated. “Also recorded” adds a separate entry of the source. Structures can show the parent of a compound that is named as a salt. Marks after values point to notes of the source that are not given here.

Experiments:
[1] = system: female Sprague-Dawley rats; assay: 14-day repeated dose neurotoxicity study, intranasal esketamine HCl (clinical observations, brain histopathology, toxicokinetics); conditions: for Abnormal respiration, incidence / Ataxia, incidence / Chromodacryorrhea, incidence / Decreased general activity, incidence / Decubitus, incidence / Increased general activity, incidence / Salivation (out of normal), incidence / audible respiration, incidence / bradypnoea, incidence: 14 days
Source text: (§1) For these studies, female specific pathogen free (SPF) Sprague-Dawley rats were used, which were approximately 12 to 14 weeks at start of dosing and weighed between 227 to 293 grams in the single dose study and between 235 to 296 grams in the 14-day repeated dose study. The rats were supplied by Charles River (Sulzfeld, Germany). They were group housed in polysulphone cages with floor area of 3000 cm^2 and Corn Cob (size 12, Eurocob, France) was provided as bedding material. Environmental enrichment existed of a rodent retreat (Bio-Serv, US) and aspen wood blocks (Datesand, UK). […] The animals were fed ad libitum with irradiated R/M-H pelleted maintenance diet from Ssniff (Germany). Hydrogel™ (supplied by Bio-services, Uden, the Netherlands) was provided to the MK-801 dosed rats in the single dose study.
Esketamine HCl was administered into each nostril of female rats at a volume of 50 μl per nostril either once, twice or thrice daily by intranasal instillation for 14 consecutive days at doses of 0 (vehicle), 18, 36 or 54 mg/day. At each instillation, the second nostril was dosed immediately after the first nostril. The interval between subsequent instillations into both nostrils was 5 minutes when dosed 2 or 3 times per day.
The vehicle control group received 3 subsequent intranasal instillations of the vehicle into both nostrils (50 μL per nostril) with 5-minute intervals for 14 consecutive days.
The positive control group received a single subcutaneous injection of (+)MK-801 at 48 hours prior to the necropsy of the vehicle control and esketamine HCl-treated animals.
Each group of main study animals consisted of 12 female rats. Four satellite animals were added to the esketamine HCl-dosed groups of main study animals for TK purposes. The plasma exposure to esketamine was measured in these animals on the first and the last day of dosing at various time points up to and including 24 hours after the first instillation.
Due to logistic constraints associated with the whole body perfusion procedure of the animals at necropsy, a staggered start was applied to the study. Consequently, all 5 groups of main study animals were divided into three subgroups of 4 animals each. For each of these subgroups treatment started on a different day. The perfusion procedure is the is the same as described for the single dose study.
All vehicle- and esketamine HCl-treated animals were sacrificed at 48 hours after the last instillation. […] The brain tissue of the vehicle control-, positive control- and esketamine HCl-treated rats were processed at the same time and handled in the same way in batches of 4 animals per group.
(§2) Furthermore, clinical observations were recorded for the esketamine HCl-dosed rats on the day of dosing at 0 till 5 minutes, 15 and 30 minutes, and at 1, 2, 4, 6 hours post-dose, at the end of the working day and at 24 hours after the last instillation in the single dose study and on the first day of dosing, after one week and towards the end of the dosing period in the repeated dose study. Body weight and body weight gain were measured daily. Food consumption was measured weekly in the repeated dose study.
On the day of terminal kill, a complete physical examination was performed on the rats in fasted condition and body weight was recorded. The surviving animals were anaesthetized by inhalation of an isoflurane (IsoFlo® Zoetis, Belgium)/oxygen mixture and killed by exsanguination via the carotid artery. […] All terminally killed rats or those killed pre-terminally were perfused with 4% paraformaldehyde in the single dose study and with glutaraldehyde 3% in potassium phosphate buffer 0.09 M with 1.4% sucrose in the repeated dose study.
Brain tissue was sampled and processed routinely. The trimmed and embedded tissue was sectioned and stained with hematoxylin-eosin (HE).

[2] = system: female Sprague-Dawley rats; assay: Single dose neurotoxicity study, intranasal esketamine HCl (clinical observations, brain histopathology, toxicokinetics)
Source text: as §1
Esketamine HCl was instilled intranasally at doses of 0 (vehicle), 36, 54 or 72 mg (expressed as esketamine base) to female rats on a single day. The dose levels were obtained by 2, 3 or 4 subsequent intranasal instillations, respectively, into both nostrils at a volume of 50 μL per nostril. At each instillation, the second nostril was dosed immediately after the first nostril. The interval between subsequent instillations into both nostrils was 5 minutes.
The vehicle control group received 4 subsequent intranasal instillations of the vehicle into both nostrils (50 μL per nostril) with 5-minute intervals.
The injection volume was 5 mL/kg.
The vehicle- and the 36 and 54 mg-dosed groups consisted of 24 animals per group, while the 72 mg-dosed and positive control groups involved 30 animals per group. Four satellite animals were added to the esketamine HCl-dosed groups of main study animals for toxicokinetic (TK) purposes. In these animals the plasma exposure to esketamine was measured on the day of dosing at various time points up to and including 24 hours after the first instillation.
Prior to the perfusion, rats were anesthetized with isoflurane. After injection of 0.1 ml heparin, the blood of the rat was flushed out with a physiological saline solution by intraarterial insertion of a needle in the abdominal aorta. Thereafter the rat was perfused with glutaraldehyde 3% in potassium phosphate 0.09M and 1.4% sucrose. Due to logistic constraints at maximum 30 animals could undergo the whole-body perfusion procedure on a given day. Therefore, a staggered start of treatment was applied to all 5 groups of main study animals. Consequently, subgroups of 4 main study animals of the vehicle- and 36 and 54 mg-dosed groups, and 5 main study animals of the 72 mg-dosed and positive control groups, were dosed on 6 consecutive days, respectively.
The vehicle control, positive control, and esketamine HCl-dosed animals were sacrificed at either 48 hours (i.e., the first 12 or 15 rats per group) or 96 hours after the dose administration time (i.e., the last 12 or 15 rats per group). The brain tissue of the vehicle control-, positive control- and esketamine HCl-treated rats were processed at the same time and handled in the same way in batches of 4 or 5 animals per group.
as §2
On the day of terminal kill, a complete physical examination was performed on the rats in fasted condition and body weight was recorded. The surviving animals were anaesthetized by inhalation of an isoflurane (IsoFlo® Zoetis, Belgium)/oxygen mixture and killed by exsanguination via the carotid artery.

[3] = 14-day neurotoxicity study, 54 mg/day
[4] = single dose neurotoxicity study, 72 mg

CN[C@]1(c2ccccc2Cl)CCCCC1=O [esketamine, (S)-2-(2-chlorophenyl)-2-(methylamino)cyclohexanone]
AUC-based safety margin compared with the maximum 84 mg clinical dose [1, 3]: ~11 fold | Cmax-based safety margin compared with the maximum 84 mg clinical dose [1, 3]: approximately 17 fold | AUC-based safety margin compared with the maximum 84 mg clinical dose [2, 4]: ~86 fold | Cmax-based safety margin compared with the maximum 84 mg clinical dose [2, 4]: approximately 60 fold

CN[C@]1(c2ccccc2Cl)CCCCC1=O [esketamine HCl, (S)-2-(2-chlorophenyl)-2-(methylamino)cyclohexanone hydrochloride]
Abnormal respiration, incidence ([1]; 18 mg/day intranasal): 2/12 | Ataxia, incidence ([1]; 18 mg/day intranasal): 12/12*** | Chromodacryorrhea, incidence ([1]; 18 mg/day intranasal): 0/12 | Decreased general activity, incidence ([1]; 18 mg/day intranasal): 5/12 | Decubitus, incidence ([1]; 18 mg/day intranasal): 0/12 | Increased general activity, incidence ([1]; 18 mg/day intranasal): 12/12*** | Salivation (out of normal), incidence ([1]; 18 mg/day intranasal): 12/12*** | audible respiration, incidence ([1]; 18 mg/day intranasal): 2/12 | bradypnoea, incidence ([1]; 18 mg/day intranasal): 0/12 | Abnormal respiration, incidence ([1]; 36 mg/day intranasal): 11/12*** | Ataxia, incidence ([1]; 36 mg/day intranasal): 12/12*** | Chromodacryorrhea, incidence ([1]; 36 mg/day intranasal): 0/12 | Decreased general activity, incidence ([1]; 36 mg/day intranasal): 12/12*** | Decubitus, incidence ([1]; 36 mg/day intranasal): 2/12 | Increased general activity, incidence ([1]; 36 mg/day intranasal): 12/12*** | Salivation (out of normal), incidence ([1]; 36 mg/day intranasal): 12/12*** | audible respiration, incidence ([1]; 36 mg/day intranasal): 6/12** | bradypnoea, incidence ([1]; 36 mg/day intranasal): 11/12*** | Abnormal respiration, incidence ([1]; 54 mg/day intranasal): 12/12*** | Ataxia, incidence ([1]; 54 mg/day intranasal): 12/12*** | Chromodacryorrhea, incidence ([1]; 54 mg/day intranasal): 0/12 | Decreased general activity, incidence ([1]; 54 mg/day intranasal): 12/12*** | Decubitus, incidence ([1]; 54 mg/day intranasal): 8/12*** | Increased general activity, incidence ([1]; 54 mg/day intranasal): 12/12*** | Salivation (out of normal), incidence ([1]; 54 mg/day intranasal): 12/12*** | audible respiration, incidence ([1]; 54 mg/day intranasal): 6/12** | bradypnoea, incidence ([1]; 54 mg/day intranasal): 12/12*** | Maximum tolerated dose (MTD) upon repeated intranasal administration ([1]; 14-day dose-range finding study (internal study)): 54 mg/day | Brain histopathology (neuronal necrosis / Olney lesions in PCG/RSC) ([1]; 14-day study, esketamine HCl intranasal up to 54 mg/day, (+)MK-801 maleate single 1 mg/kg sc, 48 h after last dose, hydrochloride, 1 mg/kg): absence of neuronal necrosis; also recorded: no histopathological lesions were noted; also recorded: did not; also recorded: No histopathological lesions were found | Mortality ([1]; up to 54 mg/day for 14 days): No test article related mortality occurred | Duration of severely decreased activity with decubitus, bradypnea, ptosis, catalepsy (anesthesia) after last instillation ([2]; 36 mg): 15 to 30 min | Duration of ataxia (with increased activity) after recovery from decreased activity ([2]; 54 mg, hydrochloride): 1.5 to 3 h and 1 to 3 h | Duration of ataxia (with increased activity) after recovery from decreased activity ([2]; 72 mg): up to 3 hours or longer | Abnormal respiration, incidence ([2]; single dose 36 mg intranasal): 22/24*** | Ataxia, incidence ([2]; single dose 36 mg intranasal): 24/24*** | Catalepsy, incidence ([2]; single dose 36 mg intranasal): 20/24*** | Chromodacryorrhea, incidence ([2]; single dose 36 mg intranasal): 0/24 | Decreased general activity, incidence ([2]; single dose 36 mg intranasal): 23/24*** | Decubitus, incidence ([2]; single dose 36 mg intranasal): 23/24*** | Increased general activity, incidence ([2]; single dose 36 mg intranasal): 24/24*** | Narrowed palpebral fissure, incidence ([2]; single dose 36 mg intranasal): 7/24** | Piloerection, incidence ([2]; single dose 36 mg intranasal): 0/24 | Salivation (out of normal), incidence ([2]; single dose 36 mg intranasal): 23/24*** | audible respiration, incidence ([2]; single dose 36 mg intranasal): 10/24*** | bradypnoea, incidence ([2]; single dose 36 mg intranasal): 22/24*** | Abnormal respiration, incidence ([2]; single dose 54 mg intranasal): 22/24*** | Ataxia, incidence ([2]; single dose 54 mg intranasal): 24/24*** | Catalepsy, incidence ([2]; single dose 54 mg intranasal): 23/24*** | Chromodacryorrhea, incidence ([2]; single dose 54 mg intranasal): 0/24 | Decreased general activity, incidence ([2]; single dose 54 mg intranasal): 23/24*** | Decubitus, incidence ([2]; single dose 54 mg intranasal): 23/24*** | Increased general activity, incidence ([2]; single dose 54 mg intranasal): 24/24*** | Narrowed palpebral fissure, incidence ([2]; single dose 54 mg intranasal): 10/24*** | Piloerection, incidence ([2]; single dose 54 mg intranasal): 0/24 | Salivation (out of normal), incidence ([2]; single dose 54 mg intranasal): 24/24*** | audible respiration, incidence ([2]; single dose 54 mg intranasal): 3/24 | bradypnoea, incidence ([2]; single dose 54 mg intranasal): 21/24*** | Abnormal respiration, incidence ([2]; single dose 72 mg intranasal): 30/30*** | Catalepsy, incidence ([2]; single dose 72 mg intranasal): 30/30*** | Chromodacryorrhea, incidence ([2]; single dose 72 mg intranasal): 0/30 | Decreased general activity, incidence ([2]; single dose 72 mg intranasal): 30/30*** | Decubitus, incidence ([2]; single dose 72 mg intranasal): 30/30*** | Increased general activity, incidence ([2]; single dose 72 mg intranasal): 29/30*** | Narrowed palpebral fissure, incidence ([2]; single dose 72 mg intranasal): 22/30*** | Piloerection, incidence ([2]; single dose 72 mg intranasal): 0/30 | Salivation (out of normal), incidence ([2]; single dose 72 mg intranasal): 29/30*** | audible respiration, incidence ([2]; single dose 72 mg intranasal): 2/30 | bradypnoea, incidence ([2]; single dose 72 mg intranasal): 30/30*** | Brain histopathology (neuronal necrosis / Olney lesions in PCG/RSC) ([2]; single dose study, esketamine HCl intranasal up to 72 mg, (+)MK-801 maleate 1 mg/kg sc, 48 and 96 h post-dose, hydrochloride): no morphological evidence of neuronal degeneration; also recorded: histopathological lesions were absent; also recorded: No signs of neuronal necrosis were found; also recorded: no neuropathological lesions were observed | Mortality ([2]; single intranasal dose 72 mg, within 30 minutes after 4 instillations): two main study animals and two satellite TK animals died | Mortality ([2]; single intranasal dose up to 54 mg): No test article related mortality
